Measurements reported in US20250186439A1, “PYK2 INHIBITION MODULATES IMMUNE CELL FUNCTION” (The Children's Medical Center Corporation, priority 2022, published 2025).
“Also recorded” adds a separate entry of the source.

System: Raw264.7
Assay: RANKL-induced osteoclast differentiation of Raw264.7 cells (TRAP activity and staining)
Assay type: cell-based, mouse
Details: for TRAP activity: listed as Pyk2 inhibitor
Experimental: FIGS. 8A-8F. Effect of Pyk2 inhibition on RANKL induced osteoclast differentiation. FIG. 8A: Schematic depicting the experimental design for testing the effect of Pyk2 inhibition on RANKL-induced osteoclast differentiation. On day 1, Raw264.7 macrophages are pretreated with Pyk2 inhibitor and then treated on day 2 with fresh culture medium comprising 100 ng/mL RANKL to stimulate differentiation to osteoclasts. The quantity of mature, differentiated osteoclasts is measured by tartrate-resistant acid […] (TRAP) activity on day 6. FIG. 8B: TRAP activity of mature, differentiated osteoclasts treated as described in FIG. 8A. […] FIG. 8C: Phase-contrast microscope images of TRAP-stained osteoclasts, treated as described in FIG. 8A, at ×20 magnification. FIG. 8D: Schematic depicting the experimental design for testing the effect of Pyk2 inhibition on RANKL-induced osteoclast differentiation. On day 2, Raw264.7 macrophages are treated with fresh culture medium comprising 100 ng/mL RANKL to stimulate differentiation to osteoclasts, then are subsequently treated on day 3 with Pyk2 inhibitor. FIG. 8E: TRAP activity of mature, differentiated osteoclasts treated as described in FIG. 8D. […] FIG. 8F: Phase-contrast microscope images of TRAP-stained osteoclasts, treated as described in FIG. 8D, at ×20 magnification.
To explore this question, an Abelson leukemia virus transformed monocyte/macrophage-like cell line derived from BALB/c mice, Raw264.7, was used. To induce differentiation to osteoclasts, Raw264.7 cells were treated with receptor activator of nuclear factor kappa-B ligand (RANKL), also known as osteoclast differentiation factor (ODF). Raw264.7 cells and differentiated osteoclasts were treated with Pyk2 inhibitor, as in Example 2.
Raw264.7 cells were cultured and treated with Pyk2 inhibitors after 24 hours, then differentiated into osteoclasts after 24 hours of Pyk2 inhibitor treatment (FIG. 8A). Four days after differentiation into osteoclasts, the cells were then assessed for tartrate-resistant acid phosphatase (TRAP) activity and presence, as TRAP is a biomarker expressed by mature, differentiated osteoclasts, but not undifferentiated progenitor cells.
Therefore, the effect of Pyk2 inhibition was also assessed by culturing RAW264.7 cells, differentiating into osteoclasts after 2 days, the treating with Pyk2 inhibitor for 24 hours, 1 day after differentiating (FIG. 8D). […] Therefore, Pyk2 inhibition could ultimately result in an increase in bone mass.

CN(c1ccccc1CNc1nc(Nc2ccc3c(c2)CC(=O)N3)ncc1C(F)(F)F)S(C)(=O)=O [PF-431396]
TRAP activity (1000 nM for 24 hours, 1 day after RANKL): statistically significant reduction; also recorded: significantly reduced
TRAP staining (inhibitor for 24 hours, 1 day after RANKL): apparent reduction
TRAP activity (inhibitor pretreatment (up to 1000 nM) before RANKL): not statistically significant; also recorded: no significant differences
TRAP staining (inhibitor pretreatment before RANKL): did not reveal any obvious difference
